Source: publication PMC7572726 (Nature, 2020)

Columns and labels:
Test in all cases: EMSA
Format in all cases: binding
Settings in all cases: labelled compound (32P, ~1 uM), 20 uM protein; pH 7.5, 25 C
FdSTING = biological target: T1, FdSTING (Flavobacterium daejeonense, UniProt P0DUD9)
T1 sequence (P0DUD9 1-311): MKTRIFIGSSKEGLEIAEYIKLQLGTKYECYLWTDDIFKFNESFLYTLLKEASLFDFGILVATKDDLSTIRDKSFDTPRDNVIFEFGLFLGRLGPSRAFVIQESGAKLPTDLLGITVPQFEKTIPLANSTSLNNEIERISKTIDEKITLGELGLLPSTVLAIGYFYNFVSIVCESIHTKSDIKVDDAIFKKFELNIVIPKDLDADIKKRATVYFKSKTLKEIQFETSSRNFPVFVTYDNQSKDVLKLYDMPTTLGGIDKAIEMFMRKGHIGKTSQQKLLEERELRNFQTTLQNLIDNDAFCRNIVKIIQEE

NdSTING = biological target: T2, NdSTING (Niabella drilacis, UniProt A0A1G6LGU2)
T2 sequence (A0A1G6LGU2 1-312): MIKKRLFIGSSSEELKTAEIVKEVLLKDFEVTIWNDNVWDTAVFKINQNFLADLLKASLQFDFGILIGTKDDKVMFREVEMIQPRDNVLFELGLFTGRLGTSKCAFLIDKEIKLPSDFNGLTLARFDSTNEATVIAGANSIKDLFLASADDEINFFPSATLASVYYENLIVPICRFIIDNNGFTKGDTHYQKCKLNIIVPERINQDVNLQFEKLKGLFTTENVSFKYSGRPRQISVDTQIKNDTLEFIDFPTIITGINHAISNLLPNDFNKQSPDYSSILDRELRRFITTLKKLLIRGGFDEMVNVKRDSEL

AaSTING = AaSTING (Aggregatibacter actinomycetemcomitans, UniProt A0A5D0EMF2)
AaSTING, sequence (A0A5D0EMF2 whole entry): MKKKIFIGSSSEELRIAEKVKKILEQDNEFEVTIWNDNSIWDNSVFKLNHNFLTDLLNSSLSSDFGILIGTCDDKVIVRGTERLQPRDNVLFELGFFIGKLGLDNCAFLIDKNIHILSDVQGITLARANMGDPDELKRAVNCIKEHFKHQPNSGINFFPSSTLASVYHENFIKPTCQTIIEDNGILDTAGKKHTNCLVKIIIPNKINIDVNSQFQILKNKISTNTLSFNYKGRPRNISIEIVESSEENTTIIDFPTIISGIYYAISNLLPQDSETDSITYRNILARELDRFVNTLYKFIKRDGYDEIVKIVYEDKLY

LbSTING = biological target: T3, LbSTING (Lachnospiraceae bacterium RUG226, UniProt P0DUE0)
T3 sequence (P0DUE0 1-316): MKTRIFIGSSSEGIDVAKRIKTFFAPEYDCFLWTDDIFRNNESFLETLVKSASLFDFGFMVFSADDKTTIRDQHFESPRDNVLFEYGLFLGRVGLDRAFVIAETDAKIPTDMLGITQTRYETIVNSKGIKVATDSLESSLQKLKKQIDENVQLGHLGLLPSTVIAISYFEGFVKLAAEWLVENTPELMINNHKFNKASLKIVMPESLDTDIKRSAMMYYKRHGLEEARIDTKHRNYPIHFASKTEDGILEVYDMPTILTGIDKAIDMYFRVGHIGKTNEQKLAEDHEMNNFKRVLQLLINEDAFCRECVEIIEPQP

Nc1nc2c(ncn2[C@@H]2O[C@@H]3COP(=O)(O)O[C@H]4[C@@H](O)[C@H](n5cnc6c(=O)[nH]c(N)nc65)O[C@@H]4COP(=O)(O)O[C@H]3[C@H]2O)c(=O)[nH]1 [c-di-GMP]
EMSA (FdSTING): diverse panel of bacterial STING homologues demonstrates conservation of c-di-GMP binding | EMSA (NdSTING): diverse panel of bacterial STING homologues demonstrates conservation of c-di-GMP binding | EMSA (AaSTING): Bacterial STING receptors specifically recognize c-di-GMP | EMSA (LbSTING): Bacterial STING receptors specifically recognize c-di-GMP
